Patent publication US9617258B2, “Pyrrolo[2,3-d]pyrimidinyl, pyrrolo[2,3-b]pyrazinyl and pyrrolo[2,3-d]pyridinyl acrylamides” (Pfizer Inc., priority 2013, dated 2017)

Experiment: Stability of JAK3 covalent inhibitors in human whole blood;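 also: parent compound remaining over incubation time quantified by LC-MS/MS as peak area ratio against an internal standard, using pooled K2-EDTA blood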
Format: in vitro ADME
Conditions: both sexes, whole blood, 37° C., read-out: Human blood stability t1/2

With `C#CCNC(=O)c1c[nH]c2ncc(NC3CCN(C(=O)C=C)CC3)nc12` [Example 343, 2-((1-Acryloylpiperidin-4-yl)amino)-N-(prop-2-yn-1-yl)-5H-pyrrolo[2,3-b]pyrazine-7-carboxamide] the half-life at 1 μM was greater than 5.85 h.
In the case of `COCCc1c[nH]c2ncnc(N[C@@H]3CCCN(C(=O)/C=C/CN(C)C)C3)c12` [Example 108, (2E)-4-(dimethylamino)-1-[(3R)-3-{[5-(2-methoxyethyl)-7H-pyrrolo[2,3-d]pyrimidin-4-yl]amino}pipendin-1-yl]but-2-en-1-one], the half-life at 1 μM is reported as greater than 6 h.
`C=CC(=O)N1C[C@@H](C#N)C[C@@H](Nc2ncnc3[nH]ccc23)C1` [Example 58, (3S,5R)-5-((7H-pyrrolo[2,3-d]pyrimidin-4-yl)amino)-1-acryloylpiperidine-3-carbonitrile] showed a half-life at 1 μM of 0.583 h.
In the case of `C=CC(=O)N1CCC(Nc2cnc3[nH]cc(C(=O)NC(C)C4CC4)c3n2)CC1` (centres unmarked) [Example 288, 2-[(1-acryloylpiperidin-4-yl)amino]-N-(1-cyclopropylethyl)-5H-pyrrolo[2,3-b]pyrazine-7-carboxamide], the half-life at 1 μM is reported as 3.67 h.
Compound `C=CC(=O)N1CCC(Nc2cnc3[nH]cc(-c4ccc(C)nc4)c3n2)CC1` [Example 199, 1-(4-{[7-(6-methylpyridin-3-yl)-5H-pyrrolo[2,3-b]pyrazin-2-yl]amino}piperidin-1-yl)prop-2-en-1-one] has a half-life at 1 μM greater than 6 h.
Work on `C=CC(=O)N1CC2CCN(c3cnc4[nH]cc(C(=O)NC(C)C)c4n3)C2C1` (centres unmarked) [Example 178, 2-(5-acryloylhexahydropyrrolo[3,4-b]pyrrol-1(2H)-yl)-N-(propan-2-yl)-5H-pyrrolo[2,3-b]pyrazine-7-carboxamide] yielded a half-life at 1 μM of 2.38 h.
For `C=CC(=O)N1CCC(Nc2cnc3[nH]cc(C(=O)NCC(C)(F)F)c3n2)CC1` [Example 282, 2-[(1-acryloylpiperidin-4-yl)amino]-N-(2,2-difluoropropyl)-5H-pyrrolo[2,3-b]pyrazine-7-carboxamide], the half-life at 1 μM was 4.05 h.
With `C=CC(=O)N1C[C@@H](O)C[C@@H](Nc2ncnc3[nH]ccc23)C1` [Example 17, 1-((3R,5S)-3-(7H-Pyrrolo[2,3-d]pyrimidin-4-ylamino)-5-hydroxypiperidin-1-yl)prop-2-en-1-one] the half-life at 1 μM was greater than 5.17 h.
With `C=CC(=O)N1CC[C@@H](Nc2cnc3[nH]cc(C(=O)NC(C)C)c3n2)[C@H](OC)C1` [Example 305, 2-{[(3R,4R)-1-acryloyl-3-methoxypiperidin-4-yl]amino}-N-(propan-2-yl)-5H-pyrrolo[2,3-b]pyrazine-7-carboxamide] the half-life at 1 μM was 5.95 h.
Compound `C=CC(=O)N1CCC(Nc2cnc3[nH]cc(C(=O)NCC4CC(F)(F)C4)c3n2)CC1` [Example 238, 2-[(1-acryloylpiperidin-4-yl)amino]-N-[(3,3-difluorocyclobutyl)methyl]-5H-pyrrolo[2,3-b]pyrazine-7-carboxamide] has a half-life at 1 μM of 4.33 h.
Compound `C=CC(=O)N1CCC(Nc2cnc3[nH]cc(C(=O)N[C@H](C)COC)c3n2)CC1` [Example 268, 2-[(1-acryloylpiperidin-4-yl)amino]-N-[(2R)-1-methoxypropan-2-yl]-5H-pyrrolo[2,3-b]pyrazine-7-carboxamide] has a half-life at 1 μM of 4.8 h.
Work on `C=CC(=O)N1CC(Nc2cnc3[nH]cc(C(=O)NC(C)C)c3n2)C1` [Example 188, 2-[(1-acryloylazetidin-3-yl)amino]-N-(propan-2-yl)-5H-pyrrolo[2,3-b]pyrazine-7-carboxamide] yielded a half-life at 1 μM of 1.6 h.
Compound `C=CC(=O)N1C[C@H](Nc2ncnc3[nH]cc(C#N)c23)CC[C@@H]1C` [Example 163, 4-{[(3R,6S)-1-Acryloyl-6-methylpiperidin-3-yl]amino}-7H-pyrrolo[2,3-d]pyrimidine-5-carbonitrile] has a half-life at 1 μM of 4.83 h.
Compound `C=CC(=O)N1CCC(Nc2cnc3[nH]cc(C(=O)N[C@@H]4CCC[C@@H]4F)c3n2)CC1` [Example 251, 2-[(1-acryloylpiperidin-4-yl)amino]-N-[(1R,2S)-2-fluorocyclopentyl]-5H-pyrrolo[2,3-b]pyrazine-7-carboxamide] has a half-life at 1 μM of 3.35 h.
